Test results reported in article PMC12756865, “Inhibitory effect of oestradiol on the cardiac KV7.1/KCNE1 channel is species dependent” (Experimental Physiology, 2025).

Key:
Type in all cases: cell-based
rabbit KV7.1/KCNE1 = target: T1, rabbit KV7.1/KCNE1 (Oryctolagus cuniculus, UniProt Q28705+Q9MYS6); experiment: two-electrode voltage clamp, Xenopus oocytes, reduction of Gmax
T1 construct: gene KCNQ1; wild-type KV7.1 and KCNE1 cRNAs co-injected in Xenopus laevis oocytes; KCNE1 in excess; four KV7.1 with one to four KCNE1
T1 sequence (Q9MYS6 whole entry): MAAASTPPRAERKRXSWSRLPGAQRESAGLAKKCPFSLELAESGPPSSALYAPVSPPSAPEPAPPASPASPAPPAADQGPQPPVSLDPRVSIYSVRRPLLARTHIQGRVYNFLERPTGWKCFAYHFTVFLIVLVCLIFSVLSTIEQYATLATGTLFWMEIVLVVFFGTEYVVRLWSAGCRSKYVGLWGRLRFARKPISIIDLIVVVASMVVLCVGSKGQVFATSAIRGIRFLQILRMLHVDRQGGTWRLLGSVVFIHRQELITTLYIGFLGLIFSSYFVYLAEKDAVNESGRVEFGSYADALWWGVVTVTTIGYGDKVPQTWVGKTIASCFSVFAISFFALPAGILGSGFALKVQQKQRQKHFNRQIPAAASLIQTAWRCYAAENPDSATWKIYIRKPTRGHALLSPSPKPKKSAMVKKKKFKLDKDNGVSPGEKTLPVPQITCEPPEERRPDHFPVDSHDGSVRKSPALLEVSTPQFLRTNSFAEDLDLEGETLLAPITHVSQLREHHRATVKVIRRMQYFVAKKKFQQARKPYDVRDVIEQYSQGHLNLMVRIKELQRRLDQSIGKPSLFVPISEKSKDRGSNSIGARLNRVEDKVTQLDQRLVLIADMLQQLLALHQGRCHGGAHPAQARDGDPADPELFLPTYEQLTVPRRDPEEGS
T1 sequence (Q28705 whole entry): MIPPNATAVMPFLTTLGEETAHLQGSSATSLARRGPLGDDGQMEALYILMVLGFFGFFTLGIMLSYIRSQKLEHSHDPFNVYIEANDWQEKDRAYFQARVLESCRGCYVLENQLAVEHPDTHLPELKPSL

guinea pig KV7.1/KCNE1 = target: T2, guinea pig KV7.1/KCNE1 (Cavia porcellus, UniProt A6Y9U2+Q60409); experiment: two-electrode voltage clamp, Xenopus oocytes, change of Gmax; conditions: 3 µM; inhibition; EC50 fit ambiguous; pH 7.4, about 20 °C; ethanol vehicle
T2 construct: gene KCNQ1; wild-type KV7.1 and KCNE1 cRNAs co-injected in Xenopus laevis oocytes; KCNE1 in excess; four KV7.1 with one to four KCNE1
Excerpt: two-electrode voltage clamp, Xenopus oocytes, change of Gmax on guinea pig KV7.1/KCNE1

rabbit KV7.1/human KCNE1 = target: T3, rabbit KV7.1/human KCNE1 (Oryctolagus cuniculus; Homo sapiens, UniProt P15382+Q9MYS6); experiment: as above; conditions: 10 µM; inhibition; EC50 fit ambiguous; pH 7.4, about 20 °C; ethanol vehicle
T3 construct: gene KCNQ1; cross-species complex of two intact wild-type subunits (no fusion): rabbit KV7.1 and human KCNE1 cRNAs co-injected in Xenopus laevis oocytes
T3 sequence (Q9MYS6 whole entry, the tested form may be a part): as the sequence (Q9MYS6 whole entry) above
Excerpt: two-electrode voltage clamp, Xenopus oocytes, change of Gmax on rabbit KV7.1/human KCNE1

[1] = target: T4, human KV7.1/KCNE1 (tested as KV7.1/KCNE1_K69Q) (Homo sapiens, UniProt P15382+P51787, P15382:K69Q); experiment: two-electrode voltage clamp, Xenopus oocytes, reduction of Gmax
T4 construct: gene KCNQ1; KV7.1 and KCNE1 cRNAs co-injected in Xenopus laevis oocytes; KCNE1 in excess; four KV7.1 with one to four KCNE1
T4 sequence (P51787 whole entry): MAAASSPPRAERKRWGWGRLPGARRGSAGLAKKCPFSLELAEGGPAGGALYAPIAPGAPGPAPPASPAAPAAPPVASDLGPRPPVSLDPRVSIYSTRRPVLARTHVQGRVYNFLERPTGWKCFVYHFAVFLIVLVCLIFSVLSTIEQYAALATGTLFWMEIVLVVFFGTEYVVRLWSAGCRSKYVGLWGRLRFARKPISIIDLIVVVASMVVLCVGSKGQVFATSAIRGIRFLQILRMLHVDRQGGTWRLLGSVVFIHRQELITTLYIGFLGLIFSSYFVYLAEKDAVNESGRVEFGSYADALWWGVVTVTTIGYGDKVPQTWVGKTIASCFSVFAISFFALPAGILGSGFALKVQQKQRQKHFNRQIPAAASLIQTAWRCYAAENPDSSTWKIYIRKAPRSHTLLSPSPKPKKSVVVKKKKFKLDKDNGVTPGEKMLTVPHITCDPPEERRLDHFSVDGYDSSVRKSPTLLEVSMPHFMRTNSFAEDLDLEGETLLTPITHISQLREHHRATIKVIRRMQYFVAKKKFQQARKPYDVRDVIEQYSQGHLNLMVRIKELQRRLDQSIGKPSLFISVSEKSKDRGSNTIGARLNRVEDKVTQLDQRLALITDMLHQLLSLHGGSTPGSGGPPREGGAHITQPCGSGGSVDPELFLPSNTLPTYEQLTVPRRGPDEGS

human KV7.1/rabbit KCNE1 = target: T5, human KV7.1/rabbit KCNE1 (Homo sapiens; Oryctolagus cuniculus, UniProt P51787+Q28705); experiment: two-electrode voltage clamp, Xenopus oocytes, change of Gmax; conditions: 10 µM; inhibition; EC50 fit ambiguous; pH 7.4, about 20 °C; ethanol vehicle
T5 construct: gene KCNQ1; cross-species complex of two intact wild-type subunits (no fusion): human KV7.1 and rabbit KCNE1 cRNAs co-injected in Xenopus laevis oocytes
T5 sequence (P51787 whole entry, the tested form may be a part): as the sequence (P51787 whole entry) above
T5 sequence (Q28705 whole entry, the tested form may be a part): as the sequence (Q28705 whole entry) above
Excerpt: two-electrode voltage clamp, Xenopus oocytes, change of Gmax on human KV7.1/rabbit KCNE1

EC50 (rabbit KV7.1/KCNE1): 0.23 µM | ΔG max (guinea pig KV7.1/KCNE1): −37.8 ± 3.7 (SEM) % | ΔG max (rabbit KV7.1/human KCNE1): −91.9 ± 3.0 (SEM) % | EC50 [1]: 2.9 µM | ΔG max (human KV7.1/rabbit KCNE1): −77.8 ± 6.2 (SEM) %
Compound: C[C@]12CC[C@@H]3c4ccc(O)cc4CC[C@H]3[C@@H]1CC[C@@H]2O [17β‐E2]
